The values that follow are results of earlier work, collected in paper PMC8359378 (British Journal of Clinical Pharmacology, 2021).

For data set [1] the following is noted: intravenous infusion; cited from earlier work.
The subject of the next data set is FXI and FXIa. The settings on record: subcutaneous administration; cited from earlier work.
The subject of another data set is factor XIa activity. The settings on record: cited from earlier work.

On to `CN1CCN(c2cccc3c2CCN(C(=O)/C=C/c2c(-n4cnnn4)ccc(Cl)c2F)[C@@H]3C(=O)Nc2ccc(C(=O)O)cc2)C(=O)C1` [BMS‐962212], for which, in data set [1], the “patients in the active treated groups reporting AEs” value is 17.6% and the “patients reporting infusion site pain or irritation” value is 5.9%.

B1: MAA868: fully human antibody which binds both FXI and FXIa (antibody, chains of the INN, looked up, V domains shown)
VH: QVQLLESGGGLVQPGGSLRLSCAASGFTFSTAAMSWVRQAPGKGLEWVSGISGSGSSTYYADSVKGRFTISRDNSKNTLYLQMNSLRAEDTAVYYCARELSYLYSGYYFDYWGQGTLVTVSS
VL: QSVLTQPPSASGTPGQRVTISCSGSSSNIGSNDVSWYQQLPGTAPKLLIYKNYNRPSGVPDRFSGSKSGTSASLAISGLQSEDEADYYCSAWDQRQFDVVFGGGTKLTVL
Take B1: the “effect on aPTT and FXI” value in the data set on FXI and FXIa was “robust and sustained prolongation of aPTT and FXI suppression”.

B2: Osocimab: fully human IgG1 monoclonal antibody targeting coagulation factor XIa (antibody, chains of the INN, looked up, V domains shown)
VH: EVQLLESGGGLVQPGGSLRLSCAASGFTFSQYGMDWVRQAPGKGLEWVSGIGPSGGSTVYADSVKGRFTISRDNSKNTLYLQMNSLRAEDTAVYYCTRGGPYYYYGMDVWGQGTTVTVSS
VL: DIQMTQSPSSLSASVGDRVTITCQASQDISNYLNWYQQKPGKAPKLLIYDASNLETGVPSRFSGSGSGTDFTFTISSLQPEDIATYYCQQADSFPVTFGGGTKVEIK
As to B2, the “effect on apparent factor XIa activity and aPTT” value in the data set with factor XIa activity is “reduced apparent factor XIa activity and prolonged aPTT in a dose‐dependent manner”.
